Publication PMC3636874, “An Antedrug of the CXCL12 Neutraligand Blocks Experimental Allergic Asthma without Systemic Effect in Mice” (The Journal of Biological Chemistry, 2013)

Tests used:
[1] = system: inflammatory cell recruitment in the airways of OVA-sensitized and challenged BALB/c mice; experiment: 8-day murine model of airway hypereosinophilia (OVA sensitization and challenge), cell counts in BALF; assay type: in vivo, mouse; conditions: for effect on eosinophil / inflammatory cell recruitment in BALF after OVA challenge, intranasal: intranasal 300 nmol/kg in 10% HP-βCD, 2 h before each challenge; for inhibition of eosinophil counts in BALF: intranasal, 300–500 nmol/kg in 10% HP-βCD, 2 h before each OVA challenge; for effect on inflammatory cell counts in BALF after OVA challenge, intraperitoneal in HP-βCD: twice daily 20 μmol/kg in 10% HP-βCD, 3 days; for effect on airway inflammation (BALF cell recruitment) after OVA challenge, intraperitoneal in carboxymethylcellulose: up to 350 μmol/kg once a day for 3 days in 1% carboxymethylcellulose
Method: The in vivo activity of the compounds was assessed in an 8-day model of hypereosinophilia created by immunization and challenge to ovalbumin in mice. Briefly, 9-week-old male BALB/c mice were sensitized by intraperitoneal injection of a mixture of 50 μg of ovalbumin (OVA, grade V; Sigma-Aldrich) adsorbed on aluminum hydroxide (2 mg; Sigma-Aldrich) in 0.1 ml of saline on days 0, 1, and 2. Mice were challenged intranasally with 10 μg of OVA in 25 μl of saline (12.5 μl/nostril) on days 5, 6, and 7. Control mice received intraperitoneal and intranasal administrations of saline alone. Intranasal administrations were performed under anesthesia with 50 mg/kg ketamine and 3.33 mg/kg xylazine given intraperitoneally. Food and water were supplied ad libitum. Animal experimentation was conducted with the approval of the government body that regulates animal research in France. The chalcone compounds were administered either by the intraperitoneal or intranasal routes. In a first set of experiments, mice received either chalcone 4 or carbonitrile-chalcone 4 solubilized in PBS with 10% HP-βCD (C0926, Sigma) by intranasal injection 2 h before each nasal OVA or saline challenge. In a second set of experiments, mice received CN-chalcone 4, vanillin, or parachlorobenzoylacetonitrile intranasally, in PBS with HP-βCD 10%, 2 h before each OVA or saline challenge. In the last set of experiments, mice received chalcone 4 or CN-chalcone 4 in suspension in carboxymethylcellulose 1% or solubilized in PBS with HP-βCD 10% and administered by intraperitoneal injection 2 h before each OVA or saline challenge. Collection of bronchoalveolar lavage fluid (BALF) was performed 24 h after the last OVA challenge. Mice were deeply anesthetized by intraperitoneal injection of 150 mg/kg ketamine and 10 mg/kg xylazine. A plastic canula was inserted into the trachea, and airways were lavaged by 10 instillations of 0.5 ml of ice-cold saline supplemented with 2.6 mM EDTA (saline-EDTA). Total and differential cell counts in the BALF were performed after centrifugation (300 × g for 5 min at 4 °C) to pellet cells. Erythrocytes were lysed by hypotonic shock by the addition of 1.5 ml of distilled H2O, followed by the addition of 0.5 ml of 0.6 M KCl. Cells were centrifuged and resuspended in 500 μl of ice-cold saline-EDTA, and total cell counts were determined using a hemocytometer (Neubauer's chamber). Differential cell counts were assessed on cytologic preparation obtained by cytocentrifugation (Cytospin 3, Shandon Ltd.) of 200 μl of diluted BALF (250,000 cells/ml in ice-cold saline-EDTA). Slides were stained with Hemacolor (Merck), and counts were performed on at least 400 cells for each preparation. Differential counts were expressed as absolute numbers or as a percentage of the total number of cells.
The in vivo activity of CN-chalcone 4 was assayed in a recently developed 8-day mouse model of airway hypereosinophilia ([24]). In this model, mice are sensitized by intraperitoneal injection of OVA (50 μg) adsorbed on 2 mg of aluminum hydroxide in 0.1 ml of saline on days 0, 1, and 2. Mice are then challenged intranasally with 10 μg of OVA in 25 μl of saline (12.5 μl/nostril) on days 5, 6, and 7. Drugs to be tested can be administered either systemically by the intraperitoneal route or locally by the intranasal route. The intranasal route mimics the inhalation exposure used in humans, which is the preferred and well accepted administration for inflamed airway treatment, in particular asthma. Thus, unless otherwise stated, drugs were administered intranasally in this study. Due to limited solubility of chalcone 4 (9 ± 1 μM) and CN-chalcone 4 (16 ± 2 μM) in saline buffer, drugs were dissolved in physiological solutions complemented with HP-βCD (10%, w/w). Under such conditions, chalcone 4 and CN-chalcone 4 could be dissolved at maximal concentrations reaching 690 ± 44 and 493 ± 36 μM, respectively.

CXCL12 binding to CXCR4 = molecular target: T1, CXCL12 binding to CXCR4 (Homo sapiens, UniProt P48061); experiment: FRET-based binding of CXCL12-TR to EGFP-hCXCR4 (competition); conditions: dose-dependent
T1 construct: expressed in transfected cells
Method: FRET-based binding experiments were carried out as described ([26], [46]). Human embryonic kidney 293 cells expressing the fusion receptor EGFP-hCXCR4 were harvested in PBS (137 mM NaCl, 2.7 mM KCl, 4.3 mM Na2PO4·7H2O, 1.4 mM KH2PO4, pH 7.4) supplemented with 5 mM EDTA, pH 7.4, centrifuged, and resuspended in HEPES-bovine serum albumin (BSA) buffer (10 mM HEPES, 137.5 mM NaCl, 1.25 mM MgCl2, 1.25 mM CaCl2, 6 mM KCl, 10 mM glucose, 0.4 mM NaH2PO4, 0.1% bovine serum albumin (w/v), pH 7.4). Cells were used at a concentration of 10^6 cells/ml. Apparent affinities of the different ligands were determined by real-time fluorescence monitoring ligand-receptor interactions. […] Fluorescence emitted at 510 nm (excitation at 470 nm) was recorded at 21 °C using a Fluorolog 2 spectrofluorimeter (SPEX) and sampled every 0.3 s. Binding of CXCL12-TR to EGFP-labeled CXCR4 was detected as a reversible decline of emission at 510 nm, due to energy transfer from excited EGFP to TR. For competition experiments, the fluorescent chemokine was preincubated for 1 h at room temperature with or without various concentrations of each chalcone. Then the premix was added, and fluorescence was recorded until equilibrium was reached (300 s). Data were analyzed using Kaleidagraph 3.08 software (Synergy Software, Reading, PA).

Cytochrome c oxidase = Cytochrome c oxidase activity in lung and heart homogenates of treated mice; assay type: in vivo, mouse; conditions: intraperitoneal 350 μmol/kg per day, three days
Method: Lung and heart were homogenized separately with an UltraTurax® (IMLAB, Lille, France) in PBS, pH 7.4 (one organ in 1 ml of buffer). Lung homogenate was diluted at 1:2 and heart homogenate at 1:5 in PBS. 100 μl of each diluted homogenate were placed in a microplate, and 100 μl of assay reagent (10 mM tetramethyl-p-phenylenediamine, 2 mM sodium ascorbate, 20 mM KH2PO4) were added. The microplate was placed immediately in a microplate spectrophotometer reader, and optical density kinetic (λ = 610 nm) was measured every 20 s for 30 min. Results are expressed as Vmax/100 μg of protein (OD/min/100 μg of protein).

[2] = design: method as in PMID 24900366; conditions: cited from earlier work
[3] = design: method as in PMID 24900366; conditions: cited from earlier work; remark: listed apart in the source

SMILES	effect on eosinophil / inflammatory cell recruitment in BALF after OVA challenge, intranasal [1]	inhibition of eosinophil counts in BALF [1]	effect on inflammatory cell counts in BALF after OVA challenge, intraperitoneal in HP-βCD [1]	effect on airway inflammation (BALF cell recruitment) after OVA challenge, intraperitoneal in carboxymethylcellulose [1]	concentration giving maximal inhibition of CXCL12 binding to CXCR4 (CXCL12 binding to CXCR4) [µM]	Cytochrome c oxidase (Vmax), Heart (×10^3) (Cytochrome c oxidase; OVA-challenged mice)	Cytochrome c oxidase (Vmax), Lung (×10^2) (Cytochrome c oxidase; OVA-challenged mice)	Cytochrome c oxidase (Vmax), Heart (×10^3) (Cytochrome c oxidase; mice without OVA)	Cytochrome c oxidase (Vmax), Lung (×10^2) (Cytochrome c oxidase; mice without OVA)	Stability half-life (t1/2), PBS ([2]; PBS pH 7.4) [h]	Stability half-life (t1/2), PBS, 10% β-cyclodextrine ([2]; PBS with 10% HP-βCD) [h]	percentage of starting molecule recovered, PBS ([2]; at 10 h) [%]	percentage of starting molecule recovered, PBS, 10% β-cyclodextrine ([2]; at 10 h) [%]	Stability half-life (t1/2), lung homogenate ([3]; mouse lung homogenate) [h]	percentage of starting molecule recovered, lung homogenate ([3]; time not given) [%]
COc1cc(/C=C(\C#N)C(=O)c2ccc(Cl)cc2)ccc1O [CN-chalcone 4, (E)-2-(4-chlorobenzoyl)-3-(4-hydroxy-3-methoxyphenyl)acrylonitrile]	as potent as chalcone 4	up to 50%	did not affect any inflammatory cell counts	inactive	> 1	29.9 ± 3.5 OD/min/100 μg of protein (×10^	12.7 ± 1.6 OD/min/100 μg of protein (×10^	28.5 ± 3.2 OD/min/100 μg of protein (×10^	13.8 ± 2.8 OD/min/100 μg of protein (×10^						
COc1cc(/C=C/C(=O)c2ccc(Cl)cc2)ccc1O [chalcone 4]	Significant reduction of eosinophil recruitment	up to 50%	significantly reducing eosinophils, neutrophils, and T cell counts in BALF	dose-dependent anti-inflammatory activity						> 10	> 10	98	95	> 6	60
